Source: the supplement of paper PMC11061612

Columns and labels:
[1] = system: RPMI-6666 (Non-Cancerous); experiment: Bliss excess, mean over the matrix (fraction); higher = more synergy
Summary of the method: (§1)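 Cell lines in DMEM/F12 or RPMI with 10% FBS were plated in 1536-well plates, held 24 hours at 37°C, 5% CO2, then given two-drug dose matrices for 72 hours (DMSO typically 0.2%). Viability was read by CellTiter-Glo 2.0 luminescence and scaled as inhibition from 0 (vehicle wells) to 1 (blank wells). Combination Emax is the second-highest inhibition in the matrix; Bliss excess is observed combination effect minus expected EA + EB − EA·EB, EA and EB being single-agent effects.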

COLO-829 (Melanoma) [2] = experiment: as above
Summary of the method: as §1

SH-4 (Melanoma) [3] = experiment: as above
Summary of the method: as §1

[4] = system: RT-112 (Bladder Carcinoma); experiment: combination Emax (second highest fraction inhibited in the dose matrix, 72 h); higher = more inhibition; extreme values may be limits of the assay
Summary of the method: as §1

[5] = system: HCC-15 (Squamous Cell Lung Carcinoma); experiment: as above
Summary of the method: as §1

[6] = system: HDLM-2 (Hodgkin's Lymphoma); experiment: as above
Summary of the method: as §1

[7] = system: OC-314 (Ovarian Carcinoma); experiment: as above
Summary of the method: as §1

[8] = system: NCI-H69 (Small Cell Lung Carcinoma); experiment: as above
Summary of the method: as §1

[9] = system: SUP-T1 (T-Lymphoblastic Leukemia); experiment: as above
Summary of the method: as §1

[10] = system: LoVo (Colorectal Carcinoma); experiment: as above
Summary of the method: as §1

[11] = system: TE-4 (Esophageal Squamous Cell Carcinoma); experiment: as above
Summary of the method: as §1

COLO-829 (Melanoma) [12] = experiment: as above
Summary of the method: as §1

[13] = system: KARPAS-231 (B-Cell Non-Hodgkin's Lymphoma); experiment: as above
Summary of the method: as §1

SH-4 (Melanoma) [14] = experiment: as above
Summary of the method: as §1

[15] = system: Hs-633T (Other Solid Carcinomas); experiment: as above
Summary of the method: as §1

NCI-H2461 (Mesothelioma) = experiment: as above
Summary of the method: as §1

[16] = system: CAL-51 (Breast Carcinoma); experiment: as above
Summary of the method: as §1

[17] = system: SU-DHL-6 (B-Cell Non-Hodgkin's Lymphoma); experiment: as above
Summary of the method: as §1

[18] = system: SK-OV-3 (Ovarian Carcinoma); experiment: as above
Summary of the method: as §1
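Wherever Bliss excess, mean over the matrix is given: after 72 h of two-drug dosing.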

Row | Structure (SMILES) | Bliss excess [1] | Bliss excess (COLO-829 (Melanoma) [2]) | Bliss excess (SH-4 (Melanoma) [3]) | combination Emax [4] | combination Emax [5] | combination Emax [6] | combination Emax [7] | combination Emax [8] | combination Emax [9] | combination Emax [10] | combination Emax [11] | combination Emax (COLO-829 (Melanoma) [12]) | combination Emax [13] | combination Emax (SH-4 (Melanoma) [14]) | combination Emax [15] | combination Emax (NCI-H2461 (Mesothelioma)) | combination Emax [16] | combination Emax [17] | combination Emax [18]
1 | COc1nnc2ccc(N3CCC(c4ccc(OCCN5CCN(C)C(=O)[C@H]5C)cc4)CC3)nn12 [AZD5153] + C=CCn1c(=O)c2cnc(Nc3ccc(N4CCN(C)CC4)cc3)nc2n1-c1cccc(C(C)(C)O)n1 [AZD1775] (first compound max 1 µM, partner max 1 µM) | -0.0821 | -0.0178 | -0.106 | 0.661 | 0.674 | 0.732 | 0.912 | 0.678 | 0.821 | 0.656 | 0.892 | 0.283 | 0.978 | 0.65 | 0.798 | 0.655 | 0.956 | 0.941 | 0.506
2 | CC(=O)c1c(C)c2cnc(Nc3ccc(N4CCNCC4)cn3)nc2n(C2CCCC2)c1=O [Palbociclib] + CC1(C)CCC(CN2CCN(c3ccc(C(=O)NS(=O)(=O)c4ccc(NCC5CCOCC5)c([N+](=O)[O-])c4)c(Oc4cnc5[nH]ccc5c4)c3)CC2)=C(c2ccc(Cl)cc2)C1 [Venetoclax] (first compound max 10 µM, 7x7, partner max 1 µM) | -0.0674 | 0.0199 | -0.0734 | 0.279 | 0.177 | 0.731 | 0.334 | 0.764 | 0.618 | 0.484 | 0.217 | 0.298 | 0.889 | 0.271 | 0.49 | 0.308 | 0.219 | 0.976 | 0.144
3 | NC1(C(=O)N[C@@H](CCO)c2ccc(Cl)cc2)CCN(c2ncnc3[nH]ccc23)CC1 [Capivasertib] + CC(C)n1c(=O)n(C)c2cnc3cc(F)c(-c4ccc(OCCCN5CCCCC5)nc4)cc3c21 [AZD1390] (first compound max 10 µM, 7x7, partner max 0.3 µM) | -0.08 | -0.126 | -0.0856 | 0.255 | 0.26 | 0.298 | 0.421 | 0.514 | 0.718 | 0.586 | 0.616 | 0.201 | 0.215 | 0.359 | 0.258 | 0.6 | 0.488 | 1 | 0.383
4 | Cn1cnc2c(F)c(Nc3ccc(Br)cc3Cl)c(C(=O)NOCCO)cc21 [Selumetinib] + C[C@@H]1COCCN1C2=NC(=NC(=C2)C3(CC3)[S@](=N)(=O)C)C4=C5C=CNC5=NC=C4 [AZD6738] (first compound max 10 µM, 7x7, partner max 10 µM) | -0.0157 | 0.102 | -0.0145 | 0.555 | 0.503 | 0.243 | 0.753 | 0.261 | 0.713 | 0.738 | 0.791 | 0.597 | 0.639 | 0.91 | 0.748 | 0.571 | 0.964 | 0.405 | 0.32
5 | NC1(C(=O)N[C@@H](CCO)c2ccc(Cl)cc2)CCN(c2ncnc3[nH]ccc23)CC1 [Capivasertib] + C[C@@H]1COCCN1C2=NC(=NC(=C2)C3(CC3)[S@](=N)(=O)C)C4=C5C=CNC5=NC=C4 [AZD6738] (first compound max 10 µM, 7x7, partner max 10 µM) | -0.118 | 0.0403 | -0.036 | 0.62 | 0.367 | 0.518 | 0.793 | 0.671 | 0.866 | 0.801 | 0.818 | 0.563 | 0.691 | 0.492 | 0.894 | 0.797 | 0.936 | 1 | 0.493
6 | COc1cc2ncnc(Nc3ccc(F)c(Cl)c3)c2cc1OCCCN1CCOCC1 [Gefitinib] + CC(C)n1c(=O)n(C)c2cnc3cc(F)c(-c4ccc(OCCCN5CCCCC5)nc4)cc3c21 [AZD1390] (first compound max 10 µM, 7x7, partner max 0.3 µM) | -0.0657 | -0.0599 | -0.0669 | 0.176 | 0.0725 | 0.192 | 0.255 | 0.286 | 0.382 | 0.421 | 0.981 | 0.143 | 0.24 | 0.149 | 0.203 | 0.256 | 0.068 | 0.433 | 0.285
7 | COc1nnc2ccc(N3CCC(c4ccc(OCCN5CCN(C)C(=O)[C@H]5C)cc4)CC3)nn12 [AZD5153] + CCN(CCO)CCCOc1ccc2c(Nc3cc(CC(=O)Nc4cccc(F)c4)[nH]n3)ncnc2c1 [AZD2811] (first compound max 1 µM, 7x7, partner max 1 µM) | -0.0656 | -0.0173 | -0.0194 | 0.357 | 0.74 | 0.434 | 0.884 | 0.782 | 0.786 | 0.627 | 0.467 | 0.3 | 0.514 | 0.613 | 0.746 | 0.592 | 0.807 | 0.903 | 0.376
8 | C[C@@H](c1ccc2nccn2c1)n1nnc2ncc(-c3cnn(C)c3)nc21 [Savolitinib] + CC1(C)CCC(CN2CCN(c3ccc(C(=O)NS(=O)(=O)c4ccc(NCC5CCOCC5)c([N+](=O)[O-])c4)c(Oc4cnc5[nH]ccc5c4)c3)CC2)=C(c2ccc(Cl)cc2)C1 [Venetoclax] (first compound max 1 µM, 7x7, partner max 1 µM) | -0.0557 | -0.0411 | -0.0535 | 0.156 | 0.175 | 0.28 | 0.254 | 0.372 | 0.131 | 0.195 | 0.145 | 0.209 | 0.866 | 0.139 | 0.16 | 0.301 | 0.113 | 0.465 | 0.121
9 | Cc1nc(Nc2ncc(C(=O)Nc3c(C)cccc3Cl)s2)cc(N2CCN(CCO)CC2)n1 [Dasatinib] + CC(=O)Nc1cccc(-n2c(=O)n(C3CC3)c(=O)c3c(Nc4ccc(I)cc4F)n(C)c(=O)c(C)c32)c1 [Trametinib] (first compound max 2 µM, 7x7, partner max 1 µM) | 0.0193 | -0.159 | -0.0721 | 0.584 | 0.853 | 0.12 | 0.781 | 0.124 | 0.577 | 0.801 | 0.857 | 0.672 | 0.476 | 0.935 | 0.939 | 0.431 | 0.43 | 1 | 0.392
10 | COc1nnc2ccc(N3CCC(c4ccc(OCCN5CCN(C)C(=O)[C@H]5C)cc4)CC3)nn12 [AZD5153] + C[C@@H]1COCCN1C2=NC(=NC(=C2)C3(CC3)[S@](=N)(=O)C)C4=C5C=CNC5=NC=C4 [AZD6738] (first compound max 1 µM, 7x7, partner max 10 µM) | -0.17 | -0.0138 | -0.0438 | 0.737 | 0.513 | 0.525 | 0.981 | 0.735 | 0.844 | 0.814 | 0.898 | 0.259 | 0.752 | 0.666 | 0.912 | 0.649 | 0.993 | 0.968 | 0.481
11 | Cn1cnc2c(F)c(Nc3ccc(Br)cc3Cl)c(C(=O)NOCCO)cc21 [Selumetinib] + CC(C)n1c(=O)n(C)c2cnc3cc(F)c(-c4ccc(OCCCN5CCCCC5)nc4)cc3c21 [AZD1390] (first compound max 10 µM, 7x7, partner max 0.3 µM) | -0.0234 | -0.0578 | -0.0993 | 0.353 | 0.421 | 0.138 | 0.211 | 0.122 | 0.0785 | 0.425 | 0.226 | 0.481 | 0.225 | 0.854 | 0.433 | 0.337 | 0.157 | 0.265 | 0.238
12 | CN(C)CCCOc1ccc(-c2ccc3ncc4c(c3c2)n(C2CCOCC2)c(=O)n4C)cn1 [AZD0156] + O=C(c1cc(Cc2n[nH]c(=O)c3ccccc23)ccc1F)N1CCN(C(=O)C2CC2)CC1 [Olaparib] (first compound max 3 µM, partner max 3 µM) | 0.119 | -0.0578 | 0.0237 | 0.228 | 0.371 | 0.207 | 0.497 | 0.354 | 0.432 | 0.693 | 0.206 | 0.0677 | 0.371 | 0.327 | 0.57 | 0.292 | 0.296 | 0.729 | 0.228
13 | COc1nnc2ccc(N3CCC(c4ccc(OCCN5CCN(C)C(=O)[C@H]5C)cc4)CC3)nn12 [AZD5153] + CC1(C)CCC(CN2CCN(c3ccc(C(=O)NS(=O)(=O)c4ccc(NCC5CCOCC5)c([N+](=O)[O-])c4)c(Oc4cnc5[nH]ccc5c4)c3)CC2)=C(c2ccc(Cl)cc2)C1 [Venetoclax] (first compound max 1 µM, 7x7, partner max 1 µM) | -0.0153 | -0.0356 | -0.124 | 0.239 | 0.329 | 0.612 | 0.814 | 0.636 | 0.745 | 0.464 | 0.27 | 0.226 | 1 | 0.607 | 0.564 | 0.517 | 0.673 | 1 | 0.383
